In PubChem BioAssay (NCI):
“And” between values parts separate entries of the source, which are not always exact repeats. Identical values can stand only once.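 Step 1: Grow cells in 96-well plates. Step 2: Expose to compound for 48 hours at 5 concentrations. Step 3: Interpolate endpoints linearly; if unreached, use highest concentration. Abbreviation: GI50, concentration required for 50% inhibition of growth. TGI denotes the concentration required for complete inhibition of growth.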

Legend:
Test in all cases: growth of human tumour cells (NCI), 48 h
[1] = system: MOLT-4 leukemia
[2] = system: SN12C renal
[3] = system: SF-295 CNS
[4] = system: NCI-H460 lung
[5] = system: ACHN renal
[6] = system: BT-549 breast
[7] = system: KM12 colon
[8] = system: SF-268 CNS
[9] = system: HOP-92 NSCLC
[10] = system: SR leukemia

| Compound | GI50 [1] | TGI [1] | GI50 [2] | TGI [2] | GI50 [3] | TGI [3] | GI50 [4] | TGI [4] | GI50 [5] | TGI [5] | GI50 [6] | TGI [6] | GI50 [7] | TGI [7] | GI50 [8] | TGI [8] | GI50 [9] | TGI [9] | GI50 [10] | TGI [10] |
| --- | --- | --- | --- | --- | --- | --- | --- | --- | --- | --- | --- | --- | --- | --- | --- | --- | --- | --- | --- | --- |
| CCCCC#CC#Cc1cccc(=O)o1 | 4.77 µM | 32.1 µM | 15.1 µM | 38.8 µM | 18.8 µM | 40 µM | 20.9 µM | > 100 µM | 14.6 µM | 28.7 µM | 20.3 µM | 46.9 µM | 13.5 µM | 27.4 µM | 41.4 µM | > 100 µM | 33.2 µM | > 100 µM | – | – |
| Cc1c(NC(=O)OC[C@@H]2COCCN2)cn2ncnc(Nc3ccc4c(cnn4Cc4cccc(F)c4)c3)c12 | 7.63 µM and 7.76 µM | > 10 µM and 24.1 µM | > 10 µM and 3.32 µM | > 10 µM and 20.4 µM | 9.08 µM and 5.67 µM | > 10 µM and 20.6 µM | > 10 µM and 6.57 µM | > 10 µM and 24 µM | 0.576 µM and 0.44 µM | > 10 µM and 15.3 µM | > 10 µM and 8.52 µM | > 10 µM and 22.7 µM | > 10 µM and 11.5 µM | > 10 µM and 25.5 µM | > 10 µM and 7.18 µM | > 10 µM and 24.5 µM | 1.45 µM and 0.991 µM | > 10 µM and 10.7 µM | – | – |
| COc1ccc(C(=O)COc2cccc(/C=C3\CSc4ccc(C)cc4C3=O)c2)cc1 | 3.13 µM | 10.2 µM | 31.8 µM | > 100 µM | 15.8 µM | > 100 µM | > 100 µM | > 100 µM | 25.7 µM | > 100 µM | 27.6 µM | > 100 µM | 3.69 µM | > 100 µM | 19.3 µM | 72.9 µM | – | – | 1.98 µM | 5.25 µM |
| O=C1C2c3[nH]c4ccccc4c3[C@@H]3CCCCC3C2C(=O)N1c1ccccc1 (some centres undefined) | – | 62.9 µM | – | 32.4 µM | – | 43.2 µM | – | 31.9 µM | – | 81.9 µM | – | – | – | 39.3 µM | – | 62.9 µM | – | – | – | 77.8 µM |
| CCCCCCCCCCCCN(O)C(=O)c1ccccc1 | – | > 100 µM | – | 71.4 µM | – | > 100 µM | – | – | – | > 100 µM | – | – | – | > 100 µM | – | 72.2 µM | – | 71.8 µM | – | > 100 µM |
| COc1cc([C@@H]2c3cc4c(cc3[C@@H](NC(=O)c3cccc(F)c3)C3COC(=O)[C@@H]32)OCO4)cc(OC)c1O (some centres undefined) | – | 1.06 µM | – | 2.73 µM | – | 26.8 µM | – | 7.52 µM | – | 1.85 µM | – | – | – | 7.2 µM | – | > 100 µM | – | 89.6 µM | – | – |
| Cc1ccc(C)c(NC(=O)CCc2nc(=S)[nH][nH]2)c1 | – | > 100 µM | – | > 100 µM | – | > 100 µM | – | > 100 µM | – | > 100 µM | – | – | – | > 100 µM | – | > 100 µM | – | > 100 µM | – | > 100 µM |
| O=C(O)Cn1c(=O)[nH]c(=O)c2c1ncn2Cc1ccccc1 | – | > 100 µM | – | > 100 µM | – | – | – | > 100 µM | – | > 100 µM | – | – | – | > 100 µM | – | > 100 µM | – | > 100 µM | – | > 100 µM |
| Cc1ccc2[nH]c3c(ncc4[nH]c5ccccc5c43)c2c1 | – | 35.2 µM | – | 30.2 µM | – | 30.9 µM | – | 30.6 µM | – | 30.3 µM | – | – | – | 29.6 µM | – | 32.4 µM | – | – | – | – |
| O=C(NNC(=O)c1cc(/C=C/c2cccc([N+](=O)[O-])c2)[nH]c(=S)n1)Nc1ccc(Cl)cc1 | – | 72 µM | – | > 100 µM | – | > 100 µM | – | > 100 µM | – | > 100 µM | – | – | – | > 100 µM | – | > 100 µM | – | – | – | 9.76 µM |
| Cc1cc(C)c(S(=O)(=O)ONC(=O)OC(C)(C)C)c(C)c1 | – | > 100 µM | – | > 100 µM | – | > 100 µM | – | > 100 µM | – | > 100 µM | – | – | – | > 100 µM | – | > 100 µM | – | > 100 µM | – | – |
| COC12CC(=O)C(C(C)=O)=C(O)C1(C)c1c(OC(C)=O)c(C)c(O)c(C(C)=O)c1O2 (centres undefined) | – | > 100 µM | – | 64.7 µM | – | > 100 µM | – | > 100 µM | – | 99.2 µM | – | – | – | > 100 µM | – | > 100 µM | – | 52 µM | – | > 100 µM |
| CSc1ccc(/C=C/c2ccnc3ccccc23)cc1 | – | 66.9 µM | – | 28.8 µM | – | 27.5 µM | – | 27.3 µM | – | 29.5 µM | – | – | – | > 100 µM | – | 66 µM | – | 30.2 µM | – | 32.9 µM |
| O=C1c2c(O)cc(O)cc2OC(c2ccc(O)cc2O)C1O (centres undefined) | – | – | > 100 µM | > 100 µM | – | > 100 µM | – | > 100 µM | > 100 µM | > 100 µM | – | > 100 µM | – | > 100 µM | > 100 µM | > 100 µM | > 100 µM | > 100 µM | – | – |
| COc1ccc(/C(=N/NC(N)=O)C(c2ccc(OC)cc2)C2C(=O)Oc3ccccc32)cc1 (centres undefined) | – | > 100 µM | – | > 100 µM | – | > 100 µM | – | > 100 µM | – | – | – | – | – | > 100 µM | – | > 100 µM | – | > 100 µM | – | > 100 µM |
| CC(=O)OC1CC2C(C)(C)C(=O)C=CC2(C)C2CCC3(C)C(c4ccoc4)OC(=O)C4OC43C12C (centres undefined) | – | 76.4 µM | – | 17.2 µM | – | > 100 µM | – | 16.1 µM | – | > 100 µM | – | 44.4 µM | – | 19.4 µM | – | > 100 µM | – | > 100 µM | – | – |
| COc1cc(-c2cc(=O)c3cc(C)c(C)c(C(=O)O)c3o2)cc(OC)c1OC | – | > 100 µM | – | > 100 µM | – | > 100 µM | – | > 100 µM | – | > 100 µM | – | – | – | > 100 µM | – | > 100 µM | – | > 100 µM | – | – |
| CN(C)c1n/c(=N/c2ncn[nH]2)ss1 | – | > 100 µM | – | > 100 µM | – | > 100 µM | – | > 100 µM | – | > 100 µM | – | – | – | > 100 µM | – | > 100 µM | – | > 100 µM | – | > 100 µM |
| CC(C)(C)C(=O)O[C@@H]1COC2C(O)COC21 (some centres undefined) | – | 49 µM | – | > 100 µM | – | > 100 µM | – | > 100 µM | – | > 100 µM | – | – | – | > 100 µM | – | > 100 µM | – | > 100 µM | – | > 100 µM |
| Nc1nnc(Cn2c(-c3ccccc3)nc3ccc(Br)cc3c2=O)s1 | 17.7 µM | 48.8 µM | 18.1 µM | 77.6 µM | 26.2 µM | > 100 µM | > 100 µM | > 100 µM | 39 µM | > 100 µM | 58.3 µM | > 100 µM | 25.1 µM | > 100 µM | > 100 µM | > 100 µM | 10.8 µM | > 100 µM | – | – |
